Reference: ChEMBL document CHEMBL5365451, “Discovery of CVN417, a Novel Brain-Penetrant α6-Containing Nicotinic Receptor Antagonist for the Modulation of Motor Dysfunction” (J Med Chem, 2023)

What was measured:
[1] = Drug exposure in Sprague-Dawley rat brain at 3 mg/kg, po measured for 2 hrs by LC-MS/MS analysis; format: ADME, organism-based; settings: read-out: Drug uptake
[2] = Antagonist activity at human alpha6-alpha3/beta2/beta3 V273S mutant nAChR expressed in HEK293 cells assessed as nicotine-induced intracellular calcium release incubated for 15 mins by FLIPR analysis; format: cell-based; settings: HEK293, 0.25 h
[3] = Metabolic stability in rat liver microsome assessed as clearance preincubated for 60 mins followed by NADPH addition and measured after 60 mins by LC-MS/MS analysis; format: ADME; settings: liver microsomes, time 120 min, read-out: CLH
[4] = Intrinsic clearance in Sprague-Dawley rat at 0.5 mg/kg, iv by LC-MS/MS analysis; format: ADME, organism-based; settings: in vivo
[5] = Metabolic stability in human liver microsome assessed as clearance preincubated for 60 mins followed by NADPH addition and measured after 60 mins by LC-MS/MS analysis; format: ADME; settings: liver microsomes, time 120 min, read-out: CLH
[6] = Oral bioavailability in Sprague-Dawley rat 3 mg/kg by LC-MS/MS analysis; format: ADME, organism-based; settings: in vivo
[7] = target: Neuronal acetylcholine receptor; alpha4/beta2 (Homo sapiens, UniProt P17787+P43681); test: Antagonist activity at human alpha4/beta2 nAChR expressed in HEK293 cells assessed as nicotine-induced intracellular calcium release incubated for 15 mins by FLIPR analysis; format: cell-based
Chain of Neuronal acetylcholine receptor; alpha4/beta2 (P17787 whole entry): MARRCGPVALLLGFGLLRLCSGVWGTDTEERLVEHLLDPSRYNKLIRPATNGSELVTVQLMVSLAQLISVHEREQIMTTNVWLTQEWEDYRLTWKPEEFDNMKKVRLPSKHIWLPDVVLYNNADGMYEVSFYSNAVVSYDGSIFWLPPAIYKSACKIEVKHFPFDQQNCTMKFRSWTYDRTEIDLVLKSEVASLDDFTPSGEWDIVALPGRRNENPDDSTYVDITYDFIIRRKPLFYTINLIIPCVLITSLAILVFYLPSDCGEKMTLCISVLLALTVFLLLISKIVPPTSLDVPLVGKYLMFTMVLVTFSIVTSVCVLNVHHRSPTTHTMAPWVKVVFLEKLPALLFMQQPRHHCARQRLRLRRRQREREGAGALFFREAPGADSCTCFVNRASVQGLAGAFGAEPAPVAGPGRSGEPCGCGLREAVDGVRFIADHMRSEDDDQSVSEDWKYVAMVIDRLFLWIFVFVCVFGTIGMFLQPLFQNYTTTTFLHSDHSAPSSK
Chain of Neuronal acetylcholine receptor; alpha4/beta2 (P43681 whole entry): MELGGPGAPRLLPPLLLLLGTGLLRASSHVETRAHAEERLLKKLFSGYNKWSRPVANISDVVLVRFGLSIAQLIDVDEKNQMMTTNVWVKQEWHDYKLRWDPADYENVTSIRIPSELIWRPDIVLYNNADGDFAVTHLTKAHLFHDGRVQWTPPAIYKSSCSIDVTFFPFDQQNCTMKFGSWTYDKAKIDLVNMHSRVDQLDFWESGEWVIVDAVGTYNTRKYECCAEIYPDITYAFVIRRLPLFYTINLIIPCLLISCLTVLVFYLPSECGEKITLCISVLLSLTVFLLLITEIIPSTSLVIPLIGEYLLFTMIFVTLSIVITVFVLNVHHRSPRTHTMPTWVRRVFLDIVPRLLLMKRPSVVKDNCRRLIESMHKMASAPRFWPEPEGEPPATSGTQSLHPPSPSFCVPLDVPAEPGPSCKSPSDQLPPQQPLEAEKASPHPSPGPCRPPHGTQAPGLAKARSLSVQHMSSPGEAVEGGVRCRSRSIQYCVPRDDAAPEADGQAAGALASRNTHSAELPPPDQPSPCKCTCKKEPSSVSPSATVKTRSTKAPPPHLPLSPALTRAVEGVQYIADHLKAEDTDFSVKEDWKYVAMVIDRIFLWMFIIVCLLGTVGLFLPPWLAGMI

[8] = target: Neuronal acetylcholine receptor; alpha3/beta4 (Homo sapiens, UniProt P30926+P32297); test: Antagonist activity at human alpha3/beta4 nAChR expressed in HEK293 cells assessed as nicotine-induced intracellular calcium release incubated for 15 mins by FLIPR analysis; format: cell-based
Chain of Neuronal acetylcholine receptor; alpha3/beta4 (P30926 whole entry): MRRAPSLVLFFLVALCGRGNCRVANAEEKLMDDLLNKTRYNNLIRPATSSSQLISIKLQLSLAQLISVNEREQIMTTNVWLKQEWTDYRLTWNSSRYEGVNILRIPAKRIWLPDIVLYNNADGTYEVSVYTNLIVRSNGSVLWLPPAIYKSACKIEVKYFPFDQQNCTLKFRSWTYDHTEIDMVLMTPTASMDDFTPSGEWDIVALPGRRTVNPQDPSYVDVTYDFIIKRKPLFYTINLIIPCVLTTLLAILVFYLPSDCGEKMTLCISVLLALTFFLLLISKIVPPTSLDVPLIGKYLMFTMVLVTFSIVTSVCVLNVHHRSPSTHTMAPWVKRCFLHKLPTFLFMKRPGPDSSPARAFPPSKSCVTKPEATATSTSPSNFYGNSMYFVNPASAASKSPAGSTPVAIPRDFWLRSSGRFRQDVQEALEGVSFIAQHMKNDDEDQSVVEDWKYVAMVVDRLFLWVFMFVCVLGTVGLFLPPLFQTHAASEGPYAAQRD
Chain of Neuronal acetylcholine receptor; alpha3/beta4 (P32297 whole entry): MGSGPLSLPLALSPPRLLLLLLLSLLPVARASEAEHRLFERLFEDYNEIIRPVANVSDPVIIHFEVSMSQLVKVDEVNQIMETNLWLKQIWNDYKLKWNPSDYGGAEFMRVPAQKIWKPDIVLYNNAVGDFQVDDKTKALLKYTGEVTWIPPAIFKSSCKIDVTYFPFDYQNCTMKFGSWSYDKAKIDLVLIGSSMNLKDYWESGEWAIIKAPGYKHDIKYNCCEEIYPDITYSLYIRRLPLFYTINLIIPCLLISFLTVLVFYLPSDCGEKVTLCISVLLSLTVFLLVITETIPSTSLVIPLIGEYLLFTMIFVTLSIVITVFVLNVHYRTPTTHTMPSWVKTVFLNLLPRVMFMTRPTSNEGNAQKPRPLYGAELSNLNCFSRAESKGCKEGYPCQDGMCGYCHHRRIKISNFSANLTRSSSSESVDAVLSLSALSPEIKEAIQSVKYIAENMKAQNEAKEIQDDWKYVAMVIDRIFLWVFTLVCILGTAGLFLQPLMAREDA

[9] = Volume of distribution at steady state in Sprague-Dawley rat at 0.5 mg/kg, iv by LC-MS/MS analysis; format: ADME, organism-based; settings: in vivo, read-out: Vdss
[10] = test system: Brain; test: Drug concentration in po dosed Sprague-Dawley rat brain measured after 2 hrs by LC-MS/MS analysis; format: functional, organism-based; settings: dose 3-25 mg/kg
[11] = test system: Rattus norvegicus; test: Protection against tacrine-induced po dosed Sprague-Dawley rat tremulous jaw model assessed as decrease in tremor duration pretreated with compound for 90 mins followed by tacrine addition and measured after 5 mins; format: functional, organism-based; settings: dose 3-25 mg/kg, time 95.0 min
[12] = test system: Rattus norvegicus; test: Protection against tacrine-induced Sprague-Dawley rat tremulous jaw model assessed as decrease in tremor jaw movement at 25 mg/kg, po pretreated with compound for 90 mins followed by tacrine addition and measured after 5 mins; format: functional; parameters: scale not given: the % may be the effect or the level left; settings: time 95 min, 1.583 h

Compound | concentration at 2 h [1] [nM] | IC50 [2] [nM] | microsomal CLint [3] [µL/min/mg] | CL [4] [mL/min/kg] | microsomal CLint [5] [µL/min/mg] | bioavailability [6] [%] | IC50 [7] [nM] | IC50 [8] [nM] | Vd [9] [L/kg] | Drug uptake [10] | Activity [11] | Activity [12] [%]
CN1CCC[C@@H](NC(=O)c2cc(-c3ccc(C(F)(F)F)cc3)n(C)n2)C1 | 1910 | 80 | 3.5 | 70 | 21.4 | > 100 | 2820 | 637 | 13.4 | – | – | –
Cn1nc(C(=O)NCCN2CCCCC2)cc1-c1ccc(C(F)(F)F)cc1 | 524 | 60 | 3.1 | 64.9 | 3.1 | 82 | 3180 | 450 | 29.8 | – | – | –
COc1ccc(-c2cc(C(=O)N[C@@H]3CCCN(C)C3)nn2C)c(Cl)c1 | – | 77 | – | – | – | – | 563 | 2090 | – | Dose-Dependent Effect | Dose-Dependent Effect | –
COc1ccc(-c2cc(C(=O)N[C@@H]3CCCN(C)C3)nn2C)cc1 | – | 230 | – | – | – | – | 3500 | > 10000 | – | – | – | –
COc1ccc(-c2cc(C(=O)N[C@H]3CCCN(C)C3)nn2C)cc1 | – | 194 | – | – | – | – | 2620 | > 10000 | – | – | – | –
CCCN(CCC)CCc1cccc2c1CC(=O)N2 [ROPINIROLE] | – | – | – | – | – | – | – | – | – | – | – | 17.5
CN1[C@@H]2CCC[C@H]1C[C@H](NC(=O)c1cc(-c3ccc(C(F)(F)F)cc3)n(C)n1)C2 | 140 | 133 | 3.2 | 20.4 | 1.2 | 86.6 | 993 | 6250 | 23.4 | – | – | –
CN1CCC[C@H](NC(=O)c2cc(-c3ccc(C(F)(F)F)cc3Cl)n(C)n2)C1 | – | 83 | – | – | – | – | – | – | – | – | – | –
CN1CCC[C@H](NC(=O)c2cc(-c3ccc(C(F)(F)F)cc3)n(C)n2)C1 | 1090 | 93 | 2.5 | 40.5 | 9.6 | 17.3 | 3730 | 422 | 13 | – | – | –
Cc1ccc(C)c(Cn2nc(C)cc2C(=O)N[C@@H]2C[C@H]3CCC[C@@H](C2)N3C)c1 | – | 703 | – | – | – | – | – | – | – | – | – | –
